From patent US20080293712A1, “Benzo[C][2,7]Naphtyridine Derivatives, Methods of Making Thereof and Methods of Use Thereof” (WYETH, priority 2007, published 2008)

What follows are compounds tested against T1, PDK-1 (Homo sapiens, UniProt O15530) (assay: PDK-1 kinase inhibition ELISA assay (phosphorylation of His6-tagged SGK1 S422D by PDK-1)). Conditions: PDK-1 ELISA, Table 11; read-out: Average IC50.
T1 sequence (O15530 1-556): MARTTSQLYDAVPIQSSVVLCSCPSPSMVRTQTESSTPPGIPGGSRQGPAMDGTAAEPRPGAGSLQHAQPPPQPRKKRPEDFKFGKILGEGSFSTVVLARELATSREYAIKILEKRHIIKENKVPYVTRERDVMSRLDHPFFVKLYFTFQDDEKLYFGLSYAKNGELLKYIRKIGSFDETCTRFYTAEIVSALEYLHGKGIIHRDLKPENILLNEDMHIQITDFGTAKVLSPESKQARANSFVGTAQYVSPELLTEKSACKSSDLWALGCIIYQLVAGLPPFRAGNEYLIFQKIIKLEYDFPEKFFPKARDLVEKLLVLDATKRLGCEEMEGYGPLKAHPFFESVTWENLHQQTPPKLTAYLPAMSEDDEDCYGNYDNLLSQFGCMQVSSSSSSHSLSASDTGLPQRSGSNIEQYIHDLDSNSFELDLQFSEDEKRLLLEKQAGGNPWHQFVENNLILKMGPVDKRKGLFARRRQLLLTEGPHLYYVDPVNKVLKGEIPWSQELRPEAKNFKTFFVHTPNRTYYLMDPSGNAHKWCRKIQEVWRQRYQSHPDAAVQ
Type: biochemical
Description: In an in vitro assay, His6-tagged SGK1 with S422D mutation (formerly Upstate Biotech, now Millipore) on Thr256 is allowed to be phosphorylated by PDK-1 in the presence of a Benzo[c][2,7]naphthyridine Derivative. After 20 minutes, the reaction is quenched via the addition of urea. The His6-tagged SGK1 is then bound to 96 well Ni-NTA HisSorb plates (Quiagen, Inc., Valencia, Calif.) and phosphorylated SGK1 is quantitatively detected using rabbit derived anti-phospho SGK antibody (Cell Signaling Technology, Danvers, Mass.) as the primary antibody and horseradish peroxidase (HRP)—coupled anti-rabbit antibody (formerly Zymed, now Invitrogen, Carlsbad, Calif.) as the secondary antibody. HRP is then detected using a chemiluminescent substrate (Pierce Chemical Co., Woburn, Mass.).

| Compound | IC50 [nM] |
| --- | --- |
| COc1cc2ncc3c(N)nc(-c4cncc(OC[C@@H](N)CN5CCN(c6ccccn6)CC5)c4)cc3c2cc1OC [Ib-20, 2-(5-{[(2S)-2-amino-3-(4-pyridin-2-ylpiperazin-1-yl)propyl]oxy}pyridin-3-yl)-8,9-dimethoxybenzo[c]-2,7-naphthyridin-4-amine] | 66 |
| COc1cc2ncc3c(N)nc(-c4cncc(Nc5ccccc5NC(C)=O)c4)cc3c2cc1OC [Ib-185, N-(2-{[5-(4-amino-8,9-dimethoxybenzo[c][2,7]naphthyridin-2-yl)pyridin-3-yl]amino}phenyl)acetamide] | 37 |
| COc1cc2ncc3c(N)nc(N(C)Cc4cccnc4)cc3c2cc1OC [Ib-64, 8,9-dimethoxy-N^2-methyl-N^2-(pyridin-3-ylmethyl)benzo[c]-2,7-naphthyridine-2,4-diamine] | 3580 |
| COc1cc2ncc3c(N)nc(-c4cncc(OC[C@@H](N)COc5ccccc5F)c4)cc3c2cc1OC [Ib-141, 2-(5-{[(2R)-2-amino-3-(2-fluorophenoxy)propyl]oxy}pyridin-3-yl)-8,9-dimethoxybenzo[c][2,7]naphthyridin-4-amine] | 10 |
| C=CCOc1cncc(-c2cc3c(cnc4cc(OC)c(OC)cc43)c(N)n2)c1 [Ib-266, 2-(5-(Allyloxy)pyridin-3-yl)-8,9-dimethoxybenzo[c][2,7]naphthyridin-4-amine] | 18 |
| COc1cc2ncc3c(N)nc(-c4cccc(C(=O)O)c4)cc3c2cc1OC [Ib-76, 3-(4-amino-8,9-dimethoxybenzo[c][2,7]naphthyridin-2-yl)benzoic acid] | 524 |
| COc1cc2ncc3c(N)nc(-c4cncc(OC[C@@H](N)CSc5nccs5)c4)cc3c2cc1OC [Ib-166, 2-(5-{[(2R)-2-amino-3-(1,3-thiazol-2-ylthio)propyl]oxy}pyridin-3-yl)-8,9-dimethoxybenzo[c][2,7]naphthyridin-4-amine] | 3 |
| COc1cc2ncc3c(N)nc(-c4ccc(Br)c(F)c4)cc3c2cc1OC [Ib-234, 2-(4-bromo-3-fluorophenyl)-8,9-dimethoxybenzo[c][2,7]naphthyridin-4-amine] | 1000 |
| COc1cc2ncc3c(N)nc(-c4cncc(OCC(=O)c5ccccc5)c4)cc3c2cc1OC [Ib-267, 2-{[5-(4-amino-8,9-dimethoxybenzo[c][2,7]naphthyridin-2-yl)pyridin-3-yl]oxy}-1-phenylethanone] | 798 |
| COc1cc2ncc3c(N)nc(-c4cncc(OC[C@@H]5CN=C(Nc6ccccc6)N5)c4)cc3c2cc1OC [Ib-114, 2-(5-{[(5S)-2-anilino-4,5-dihydro-1H-imidazol-5-yl]methoxy}pyridin-3-yl)-8,9-dimethoxybenzo[c][2,7]naphthyridin-4-amine] | 82 |
| COc1cc2ncc3c(N)nc(-c4cncc(OC[C@@H](N)CN(C)S(=O)(=O)c5ccccc5)c4)cc3c2cc1OC [Ib-79, N-[(2S)-2-amino-3-{[5-(4-amino-8,9-dimethoxybenzo[c][2,7]naphthyridin-2-yl)pyridin-3-yl]oxy}propyl]-N-methylbenzenesulfonamide] | 11 |
| COc1cc2ncc3c(N)nc(-c4cncc(Nc5cccc(C(N)=O)c5)c4)cc3c2cc1OC [Ib-188, 3-{[5-(4-amino-8,9-dimethoxybenzo[c][2,7]naphthyridin-2-yl)pyridin-3-yl]amino}benzamide] | 39 |
| COc1cc2ncc3c(N)nc(-c4cc(F)cc(CCCN)c4)cc3c2cc1OC [Ib-250, 2-(3-(3-Aminopropyl)-5-fluorophenyl)-8,9-dimethoxybenzo[c][2,7]naphthyridin-4-amine] | 34 |
| COc1cc2ncc3c(N)nc(-c4cncc(OC[C@@H](N)CSc5ccc(Cl)cc5Cl)c4)cc3c2cc1OC [Ib-163, 2-[5-({(2R)-2-amino-3-[(2,4-dichlorophenyl)thio]propyl}oxy)pyridin-3-yl]-8,9-dimethoxybenzo[c][2,7]naphthyridin-4-amine] | 12 |
| COCCOc1cc2ncc3c(N)nc(Cl)cc3c2cc1OC [Ia-61, 2-Chloro-9-methoxy-8-(2-methoxyethoxy)benzo[c]-2,7-naphthyridin-4-amine] | 2620 |
| COc1cc2ncc3c(NO)nc(-c4cncc(OC[C@@H](N)Cc5cccc(Cl)c5)c4)cc3c2cc1OC [Compound I-2, 2-(5-{[(2S)-2-amino-3-(3-chlorophenyl)propyl]oxy}pyridin-3-yl)-N-hydroxy-8,9-dimethoxybenzo[c]-2,7-naphthyridin-4-amine] | > 100 |
| CCN1CCCC1CNc1cc2c(cnc3cc(OCCOC)c(OC)cc32)c(NCC2CCCN2CC)n1 (centres unmarked) [Compound I-4, N,N′-bis[(1-ethylpyrrolidin-2-yl)methyl]-9-methoxy-8-(2-methoxyethoxy)benzo[c]-2,7-naphthyridine-2,4-diamine] | > 20000 |
| COc1cc2ncc3c(N)nc(-c4cncc(Nc5c(F)c(F)c(C(N)=O)c(F)c5F)c4)cc3c2cc1OC [Ib-190, 4-{[5-(4-amino-8,9-dimethoxybenzo[c][2,7]naphthyridin-2-yl)pyridin-3-yl]amino}-2,3,5,6-tetrafluorobenzamide] | 197 |
| COc1cc2ncc3c(N)nc(-c4cncc(Nc5ccccc5N)c4)cc3c2cc1OC [Ib-182, N-[5-(4-amino-8,9-dimethoxybenzo[c][2,7]naphthyridin-2-yl)pyridin-3-yl]benzene-1,2-diamine] | 50.7 |
| COc1cc2ncc3c(N)nc(-c4cncc(OC[C@@H](N)CNCC(F)(F)F)c4)cc3c2cc1OC [Ib-109, (2S)-3-{[5-(4-amino-8,9-dimethoxybenzo[c][2,7]naphthyridin-2-yl)pyridin-3-yl]oxy}-N1-(2,2,2-trifluoroethyl)propane-1,2-diamine] | 14 |
| COCCOc1cc2ncc3c(N)nc(N4CCC[C@@H]4COC)cc3c2cc1OC [Ia-56, 9-methoxy-8-(2-methoxyethoxy)-2-[(2R)-2-(methoxymethyl)pyrrolidin-1-yl]benzo[c]-2,7-naphthyridin-4-amine] | 2360 |
| COc1cc2ncc3c(N)nc(-c4cncc(OC[C@@H](N)CNC(C)(C)c5cccnc5)c4)cc3c2cc1OC [Ib-93, (2S)-3-{[5-(4-amino-8,9-dimethoxybenzo[c][2,7]naphthyridin-2-yl)pyridin-3-yl]oxy}-N1-(1-methyl-1-pyridin-3-ylethyl)propane-1,2-diamine] | 6 |
| COc1cc2ncc3c(N)nc(-c4cncc(OC[C@@H](N)CNc5nccc(C)n5)c4)cc3c2cc1OC [Ib-113, (2S)-3-{[5-(4-amino-8,9-dimethoxybenzo[c][2,7]naphthyridin-2-yl)pyridin-3-yl]oxy}-N1-(4-methylpyrimidin-2-yl)propane-1,2-diamine] | 20 |
| COc1cc2ncc3c(N)nc(-c4cncc(OC[C@@H](N)CNCC5(c6ccccc6)CCOCC5)c4)cc3c2cc1OC [Ib-104, (2S)-3-{[5-(4-amino-8,9-dimethoxybenzo[c][2,7]naphthyridin-2-yl)pyridin-3-yl]oxy}-N1-[(4-phenyltetrahydro-2H-pyran-4-yl)methyl]propane-1,2-diamine] | 25 |
| COc1cc2ncc3c(N)nc(-c4cncc(Nc5ccc(CN)cc5)c4)cc3c2cc1OC [Ib-192, 2-(5-{[4-(aminomethyl)phenyl]amino}pyridin-3-yl)-8,9-dimethoxybenzo[c][2,7]naphthyridin-4-amine] | 81 |
| CC[C@@H](COc1cncc(-c2cc3c(cnc4cc(OC)c(OC)cc43)c(N)n2)c1)NC(=N)N [Ib-251, (S)-1-(1-(5-(4-amino-8,9-dimethoxybenzo[c][2,7]naphthyridin-2-yl)pyridin-3-yloxy)butan-2-yl)guanidine] | 32 |
